Data on 3 molecules can be found in patent publication US6197818A, “Drug for treating diabetic nephrosis” (Nanjing General Hospital of Nanjing Command, PLA, priority 1999, dated 2001).

For series [1], the system named is Diabetic animal model of rat. Description: Suppression of renal hypertrophy by rhein in experimental diabetic rats (streptozotocin). Format: in vivo, SD rats. To be noted: for blood glucose level / Kidney Index (kidney weight/body weight ratio) / Kidney Volume / Kidney Weight: rhein-treated 2 mg/Kg/day; for Kidney Index (kidney weight/body weight ratio) / Kidney Volume / Kidney Weight: 12th week. The protocol:
The concentration of rhein is 0.2 g/L.
Rats were made diabetic by an intra-abdominal injection of Streptozotocin (Sigma Chemical Co.; in 0.1 mmol/L citrate buffer, pH 4.5) in a dose of 25 mg/Kg/day for 5 days.
(§1) The observation was focused on the changes of kidney weight and volume in diabetic rats treated by rhein.

Series [2] in a line: acute toxicity, half lethal dose (LD50). Format: in vivo. To be noted: rat, in vivo; SD rats.
A further series has as its system SD rats. As to the kind of experiment: acute toxicity, half lethal dose (LD50). Format: in vivo. To be noted: natural product.
Series [3] can be described thus: tolerability of oral rhein in volunteers. It counts as in vivo, human volunteers. The protocol: Of the thirty-six volunteers given rhein at dose of 200 mg/day (100 mg, b.i.d) for 3 days, only 5 persons experience gastro-intestinal disorders. Diarrhea occurred twice or thrice a day in three of these persons, and four times in only one person.
The subject of a further series is diabetic nephropathy. Description: Clinical trial of rhein on diabetic nephropathy. Format: in vivo, human diabetic patients. The protocol: Twenty-five diabetic patients diagnosed according to the standard of WHO where enrolled in this study. The fast blood glucose levels were above 250 mg/100 ml in these patients. Diabetic nephropathy was confirmed morphologically by renal biopsy, or with measurement of urinary protein or albumin excretion in each patient.
A yellow powder supplied in capsula containing 25 mg rhein. The dosage of 100 mg per day (50 mg twice a day) rhein was given orally as therapy. All patients were followed at regular intervals for measurement of serum creatinine values and urinary protein or albumin excretion at least for 3 months.

Series [4] in a line: pharmacokinetic study of oral rhein, blood level. It counts as in vivo, human (volunteers). The protocol:
The blood level of rhein still kept at 200 to 500 ng/ml at 24th hour in volunteers.

A short description of series [5]: solubility and stability of rhein. It counts as physicochemical. The text has this: It remains steady in room temperature for more than one year. The general formula of rhein or the salt thereof is shown as the following: [drawing 2]
Series [6] has as its system Diabetic animal model of rat. Description: Suppression of renal hypertrophy by sodium rheinate in experimental diabetic rats (streptozotocin). Format: in vivo, SD rats. The note with it: for blood glucose level / Kidney Index (kidney weight/body weight ratio) / Kidney Weight: treated 1 mg/Kg/day Rhein-Na; for Kidney Index (kidney weight/body weight ratio) / Kidney Weight: 12th week. How it is done: Drug: aqueous solution of sodium rheinate at concentration of 0.1 g/L for oral
Diabetic animal model of rat: Adult female SD rats (Experimental Animal Center, Jinling Hospital, Nanjing) with body weights of 200 to 250 grams were used. Rats were made diabetic by an intra-abdominal injection of Streptozotocin (Sigma Chemical Co.; in 0.1 mmol/L citrate buffer, pH 4.5) in a dose of 25 mg/Kg/day for 5 days. Only rats with blood glucose level within the range of 13 to 25 mmol/L were recognized as the establishment of the diabetic mode.
as §1
The experiment was designed as the following:
Normal rats Diabetic rats
Control treated Control treated
Dosage of Rhein-Na, 0 1 0 1
Distilled water, ml/Kg/day 5 5 5 5

In series [7] the test system is kidney damage caused by diabetes. The note with it: cited from earlier work.
Where [8] appears, read: diabetic rats, 1 week after diabetic.
The mark [9] stands for this setting: diabetic rats, 4 weeks after diabetic.
Setting [10] is: diabetic rats, pre-diabetic (baseline).
The mark [11] stands for this setting: experimental diabetic rats, oral.
The mark [12] stands for this setting: of thirty-six volunteers, 200 mg/day (100 mg, b.i.d) for 3 days.
The mark [13] stands for this setting: Treatment after 3 months, 100 mg per day.
The mark [14] stands for this setting: of twenty-five, 100 mg per day, three months.
[15] abbreviates: patients treated with rhein, 100 mg per day.

For `O=C(O)c1cc(O)c2c(c1)C(=O)c1cccc(O)c1C2=O` [rhein], in series [1] (diabetic rats), the “kidney index (in words)” value is recorded as “decrease the kidney index (kidney weight/body weight ratio) obviously”, the “renal hypertrophy (in words)” value was “able to control or suppress renal hypertrophy”, the “Kidney Index (kidney weight/body weight ratio)” value is 4.76 ×10^-3 and the “Kidney Volume” value is 0.834 mL. Also, the “Kidney Weight” value in series [1] (diabetic rats) was 0.93 grams. The blood glucose level in [1] (setting [8]) is 20.32 mmol/L. In [1] (setting [9]), this molecule registered a blood glucose level of 19.77 mmol/L. In series [1] (diabetic rats, 8 weeks after diabetic), this molecule returned a blood glucose level of 21.00 mmol/L. For the same molecule, the blood glucose level in [1] (diabetic rats, 12 weeks after diabetic) is 19.32 mmol/L. The molecule also displayed a blood glucose level in series [1] (setting [10]) of 6.23 mmol/L. Moreover, in series [1] (setting [11]), the “hyperglycemia (in words)” value is given as “controlled or reduced effectively”. In [1] (normal rats, 1 week), the blood glucose level worked out at 5.92 mmol/L. In [1] (normal rats, 4 weeks), this molecule gave a blood glucose level of 5.66 mmol/L. This molecule gave a blood glucose level in series [1] (normal rats, 8 weeks) of 6.07 mmol/L. Moreover, in series [1] (normal rats), the “Kidney Index (kidney weight/body weight ratio)” value is recorded as 4.04 ×10^-3, the “Kidney Volume” value turned out to be 0.804 mL and the “Kidney Weight” value stood at 0.72 grams. This molecule registered a blood glucose level in series [1] (normal rats, 12 weeks) of 6.22 mmol/L. Further, the blood glucose level in series [1] (normal rats, pre-diabetic) came out at 6.12 mmol/L. Moreover, the LD50 (in general, the dose at which mortality reaches 50%) in series [2] is 3200 mg/kg. Besides, the “toxicity (in words)” value in the series with SD rats is “low toxicity and safe for therapy”. In series [3] (setting [12]), the “persons experiencing gastro-intestinal disorders” value stood at 5 persons, the “persons with diarrhea four times a day” value is recorded as “one” and the “persons with diarrhea twice or thrice a day” value is “three”. The “gastro-intestinal reactions (in words)” value in [3] (oral route, volunteers) is on record as “not marked gastro-intestinal reactions”. In addition, the “gastro-intestinal reactions as vomiting, diarrhea et al.” value with diabetic nephropathy (100 mg per day) is on record as “None”. For the same molecule, the “share of patients with obvious decrement of urinary protein excretion” value in the series with diabetic nephropathy (18 of twenty-five, 100 mg per day, three months) came to 72%. Besides, in the series with diabetic nephropathy (setting [13]), the “Change of urinary protein excretion: Decrease of 25%” value worked out at 5 No, the “Change of urinary protein excretion: Decrease of 50%” value was 9 No, the “Change of urinary protein excretion: Decrease of 75%” value is 4 No and the “Change of urinary protein excretion: No change” value turned out to be 7 No. The “tolerability (in words)” value in the series with diabetic nephropathy (all patients, 100 mg per day) is “tolerated”. In addition, in the series on diabetic nephropathy (diabetic nephropathy patients), the “urinary albumin excretion (in words)” value is “ameliorate the urinary albumin excretion significantly”. The “urinary protein excretion (in words)” value in the series on diabetic nephropathy (diabetic patients) was “could decrease the urinary protein excretion”. Further, in the series with diabetic nephropathy (setting [14]), the “patients with no change or increase of urinary protein excretion” value was “seven” and the “patients with obvious decrement of urinary protein excretion” value is given as 18 patients. Also, in the series with diabetic nephropathy (setting [15]), the Blood routine test entry is “normal”; the “liver function and renal function” value was “no liver function abnormally and deterioration of renal function”. For the same molecule, the concentration at 24 h in [4] (human, blood, po, 24th hour, volunteers, single dose of 200 mg) is 200 to 500 ng/mL. Further, the “time to peak blood level” value in [4] (one single dose of 200 mg, health man) is “one and half hours to three”. Further, in series [4] (oral), the “absorption from gastro-intestinal trace” value is listed as “easily absorbed” and the “maintenance of blood concentration” value is listed as “maintains for a longer period”. For the same molecule, the “solubility in organic solvent” value in series [5] (organic solvent) is reported as “soluble in organic solvent”. The “stability (remains steady)” value in series [5] (room temperature) is on record as “more than one”. The solubility in water entry in series [5] (water) was “soluble slightly in water”.
As for `O=C(O)c1cc(O)c2c(c1)C(=O)c1cccc(O)c1C2=O` [sodium rheinate], the blood glucose level in series [6] (setting [8]) turned out to be 21.82 mmol/L; in series [6] (setting [9]) it was 19.97 mmol/L; in series [6] (setting [10]) it was 6.17 mmol/L; in [6] (normal rats, 1 week), 6.52 mmol/L; in [6] (normal rats, 4 weeks) it was 6.48 mmol/L; in series [6] (normal rats, pre-diabetic), 6.06 mmol/L. Moreover, the figures for the “Kidney Index (kidney weight/body weight ratio)” value in series [6] (diabetic rats) and in series [6] (normal rats) were 5.68 ×10^-3 and 4.34 ×10^-3, respectively. The “Kidney Weight” value came out at 0.71 grams in series [6] (diabetic rats) and 0.59 grams in series [6] (normal rats). For the same molecule, the “hyperglycemia (in words)” value in [6] (setting [11]) is “controlled or reduced effectively”.
Turning to “insulin: the main medicament for its treatment is insulin at present”, the “effect on urinary glucose” value in series [7] is given as “can decrease the urinary glucose”. Besides, the “effect on kidney damage caused by diabetes” value in [7] (such as renal hypertrophy) is listed as “no therapeutic effect”.
